Experimental data as given in patent US6878690B2, “Compounds and methods” (PharmAxis Pty Ltd., priority 2000, dated 2005).

Experiments:
[1] = system: myelin basic protein (MBP)-specific T lymphocyte cell lines; test: Inhibition of T-lymphocyte migration across rat brain endothelial cell layer (Transwell, 51Cr-labelled cells); format: cell-based, Lewis rats; conditions: test substance 10 mmolar in upper well; 6 hours; in comparison with the negative control (glucose 6-phosphate); triplicate
Excerpt: Vascular endothelial cells were isolated from rat brain capillaries taken from 6 to 8 week old Lewis rats according to the method of Risau et al. (Risau, W., Engelhardt, B., and Wekerle, H., (1990). Journal of Cell Biology, vol 110, p 1757-1766, which is incorporated herein by reference). Colonies of endothelial cells were purified from astroglial cells and pericytes by a Thy1.1-mediated complement lysis also after the method of Risau et al. (vide supra). The endothelial colonies, according to methods known in the art, were grown in Dulbecco's minimum essential medium (DMEM) high glucose supplemented, with 20% fetal calf serum (FCS), glutamine, pyruvate, nonessential amino acids, 4-(2-hydroxyethyl)-1-piperazine ethane sulfonic acid buffer (HEPES), kanamycin, amphotericin, heparin (all from Gibco) and 150 micrograms/ml endothelial growth supplement (Collaborative Biomedical Products). Upon reaching confluence, the endothelial cultures were washed with 0.2% EDTA in phosphate buffered saline (PBS), trypsinized (Trypsin-EDTA, 0.1% final concentration, Gibco), washed and again incubated with anti-Thy1.1 antibody for 40 minutes, washed and incubated with complement sufficient to lyse all Thy1.1+ cells (Behringwerke, AG, Marburg, Germany) at room temperature, washed and plated on matrigel-coated 6.5 mm Transwells, […] (Corning Costar Corporation, Cambridge, Mass.). The endothelial cell characteristics and confluence of the monolayer were checked by measuring the electrical resistance (World Precision Instruments, New Haven, U.S.A., model EVOM-G) and by staining with FITC-labeled phalloidin (Sigma). In order to study the effect of the agents of the present invention on T lymphocyte migration, myelin basic protein (MBP)-specific T lymphocyte cell lines were generated according to the method of Ben-Nun et al. (Ben-Nun, A., Wekerle, H. and Cohen, I. R., 1981). The rapid isolation of clonable antigen-specific T lymphocyte lines capable of mediating autoimmune encephalomyelitis. European Journal of Immunology. 1981, 11(3), 195-199; incorporated herein by reference) from the lymph nodes of Lewis rats that had been immunised with MBP in Freund's complete adjuvant. These cells were used for migration studies during the first 4 days of their propagation in IL-2 containing medium, following antigen (MBP) restimulation in the presence of antigen-presenting cells from irradiated spleen cells or thymocytes taken from normal Lewis rats. The antigen-activated T lymphocytes were radio-labelled with sodium chromate (^51Cr, 37 MBq/ml, Amersham, UK) for 30 minutes at 37° C. with occasional agitation, they were then washed three times with the DMEM culture medium and placed into the upper chamber of the Transwells at 5×10^5 cells in 100 microliters of migration medium. Test and control substance were included in the upper wells at final concentrations of 0.1, 1 and 10 mM. Cell migration was monitored by light microscopy in order to gauge progress of the experiment. […] The combined material was transferred into scintillation vials and the radioactivity of each tube determined by counting for 1 minute in a Packard Auto-Gamma 5650 (IL, USA) gamma counter. Each test and the control substance (glucose 6-phosphate) and no treatment were assessed in triplicate. […]

[2] = system: lymphocyte migration into the spleen; test: Inhibition of lymphocyte migration into lymphoid tissue (spleen); format: in vivo, Balb/C mice; conditions: intravenous dose of 5 mg of test compound together with labelled lymphocytes; spleens removed 1.5 hours after injection
Excerpt: In the present example, spleens from specific pathogen free 6-8 week old female Balb/C mice [19-21 g] were used to prepare a single cell suspension in the usual manner in mixed lymphocyte culture medium (DMEM plus glucose, folic acid, L-asparagine, sodium bicarbonate, L-glutamine, sodium pyruvate, HEPES, 2-mercaptoethanol, penicillin, streptomycin, neomycin, and 2% fetal calf serum) by pushing through a stainless steel screen. Following cell collection the red blood cells were lysed in the usual manner by treating with a solution of ammonium chloride, EDTA and sodium hydrogen carbonate (pH 7.3) and the preparation strained (Falcon 2350 cell strainer). All cell preparative steps were performed on ice.
In order to deplete the preparation of B lymphocytes, the cells were suspended in purified rat anti-mouse CD45/B220 antibody (RA3-6B2 clone; PharMingen, USA) at a concentration of 4×10^7 cells per ml and incubated on ice for 20 minutes. An equal volume of mixed lymphocyte culture medium (as above) was then added and the cells centrifuged (200× g) and resuspended at a concentration of 1×10^7 cells per ml in BioMag goat ant-rat IgG (H&L) linked to magnetic beads (Bio Mag; Perseptive Diagnostics, Polysciences Inc, USA). Following a 20 minute incubation on ice, with agitation every 5 minutes, the goat anti-rat IgG/antibody complex was removed using magnetic separation (Dynal MPC-6, Dynal, USA). The magnetic separation procedure was repeated 4 times giving a cell population containing approximately 80-90% T lymphocytes (determined by FACS analysis).
The cells were then washed in Hanks media, resuspended in 5 ml of Hanks, and radio-labelled for 30 minutes at 37° C. with sodium chromate solution (^51Cr, 34 MBq/ml, Amersham, UK). The labelled cells were washed in PBS centrifuged (200×g) and a portion were resuspended at a concentration of 3×10^7 cells/ml in either PBS (negative control), or PBS containing the test compound (25 mg/ml), and stored on ice. Balb/C mice in the negative control and treatment groups received a volume of 0.2 ml of the labelled cell preparation by a lateral tail vein injection. Negative control mice received 0.2 ml of PBS together with 6×10^6 51chromium-labelled lymphocytes, and mice from the treated groups received an intravenous dose of 5 mg of the test compound together with 6 million ^51chromium-labelled lymphocytes. […]
Spleens from the recipient mice were removed 1.5 hours after injection and the cell-associated radioactivity (CPM) determined using a gamma counter (Packard Auto-Gamma 5650. IL, USA). Results (inhibition of lymphocyte migration into the spleen) were expressed as a percentage reduction in the CPM of the spleens from treated animals compared with negative controls.

[3] = system: passively transferred adjuvant arthritis; test: Passively transferred adjuvant induced arthritis; format: in vivo, DA rats; conditions: 37 mg/kg/day, end of the two week treatment period, FIG. 2
Procedure: Male DA rats 8 to 10 week old were immunised with three 100 microliter injections of Complete Freund's Adjuvant (CFA) intradermally at the base of the tail. The CFA was prepared by mixing 8 mg/ml of Mycobacterium butyricum (Difco Laboratories, USA) that had been ground to a fine powder using a mortar and pestle, in 85% light mineral oil (Sigma, USA) and 15% mannide monooleate (Sigma) and emulsifying this suspension, one part in one part saline. Thus, the final emulsion contained 4 mg/ml of M. butyricum.
Ten days after immunisation the rats were euthanased and the spleens removed aseptically. A single cell suspension was prepared in the usual manner in mixed lymphocyte culture medium (MLC) (Dulbecco's Modified Eagle's Medium (DMEM) plus glucose, folic acid, L-asparagine, sodium pyruvate, HEPES, 2-mercapto ethanol, penicillin, streptomycin, neomycin and 10% fetal calf serum) by pushing the spleens through a stainless steel sieve. The cells were placed in culture in MLC medium with 2 micrograms/ml concanavalin A added such that the lymphocyte concentration was 2 million cells per milliliter. These cells were cultured aseptically at 37° C. in an atmosphere containing 5% carbon dioxide for 72 hours.
Groups of 4 or 5 DA rats, 6 to 8 weeks of age were anesthetised with diethyl ether and implanted subcutaneously on the flank with Alzet 2002 (2 week delivery) or 2001 (1 week delivery) mini-osmotic pumps (Alza Corp., Palo Alto Calif., USA). One treatment group received phosphoric acid mono-(6-propyl-3,4,5-trihydroxy-tetrahydro-pyran-2-ylmethyl) ester in the one week delivery Alzet 2001 mini-osmotic pumps. The drug was delivered at a dose of 25 mg/kg/day. The control group for this experiment received identical mini-osmotic pumps containing normal saline. In a second experiment another group of DA rats received ethyl (3,4,5-trihydroxy-6-phosphonooxymethyl-tetrahydro-pyran-2-yl)-acetic acid ester in the two week delivery Alzet 2002 mini-osmotic pumps. This drug was delivered at a dose of 37 mg/kg/day. Control animals for this group received saline delivered in identical mini-osmotic pumps. The pumps in each case were implanted subcutaneously on the flank of each animal. […]
After 5 to 8 days, a characteristic thickening and cutaneous hyperemia of the distal joints of the hind legs became clinically apparent in the saline control animals. Disease severity was evaluated and graded in each group by taking daily measurements of the mediolateral widths of both ankle joints. The data were expressed as the mean of the change (compared with width prior to cell injection) in mediolateral ankle width expressed in millimeters (±standard error of the mean).

With `O=C(O)CC1OC(COP(=O)(O)O)C(O)C(O)C1O` (stereo not drawn) [(3,4,5-trihydroxy-6-phosphonooxymethyl-tetrahydro-pyran-2-yl)-acetic acid] the “% inhibition ± SEM” value [1] was 32 ± 2%.

With `CCCCCOC(=O)CC1OC(COP(=O)(O)O)C(O)C(O)C1O` (stereo not drawn) [Pentyl (3,4,5-trihydroxy-6-phosphonooxymethyl-tetrahydro-pyran-2-yl)-acetic acid ester] the “% inhibition ± SEM” value [1] was 80 ± 4%.

With `CCOC(=O)CC1OC(COP(=O)([O-])O)C(O)C(O)C1O.[Na+]` (stereo not drawn) [Ethyl (3,4,5-trihydroxy-6-phosphonooxymethyl-tetrahydro-pyran-2-yl)-acetic acid ester sodium salt] the “Percent Inhibition (relative to negative controls) of lymphocyte migration into spleens” value [2] was 32.4%.

`O=P([O-])(O)OCC1OCC(O)C(O)C1O.[Na+]` (stereo not drawn) [mono-(3,4,5-trihydroxy-tetrahydro-pyran-2-ylmethyl)phosphoric acid ester mono sodium salt] was tested, and the “Percent Inhibition (relative to negative controls) of lymphocyte migration into spleens” value [2] was 68.0%.

For `CCOC(=O)CC1OC(COP(=O)(O)O)C(O)C(O)C1O` (stereo not drawn) [Ethyl (3,4,5-trihydroxy-6-phosphonooxymethyl-tetrahydro-pyran-2-yl)-acetic acid ester], the “% inhibition ± SEM” value [1] was 70 ± 4%, the “swelling in the affected joints of treated animals” value ([3]; two week Alzet 2002 pump subcutaneously, controls severe swelling) was “little swelling” and the “disease status of the treated versus the control animals” value ([3]; two week Alzet 2002 pump) was “highly statistically significant difference”.

`N#CC1OC(COP(=O)([O-])[O-])C(O)C(O)C1O.[Na+].[Na+]` (stereo not drawn) [6-cyano-3,4,5-trihydroxy-tetrahydro-pyran-2-ylmethyl phosphoric acid ester disodium salt] was tested, and the “Percent Inhibition (relative to negative controls) of lymphocyte migration into spleens” value [2] was 45.0%.

With `O=C[C@H](O)[C@@H](O)[C@H](O)[C@H](O)COP(=O)(O)O` [glucose 6-phosphate, reference compound] the “% inhibition ± SEM” value [1] was 0 ± 5%.
